Measured values from article PMC8569681, “New Pyrimidine and Pyridine Derivatives as Multitarget Cholinesterase Inhibitors: Design, Synthesis, and In Vitro and In Cellulo Evaluation” (ACS Chemical Neuroscience, 2021).

These compounds were tested against T1, equine BChE (eqBChE) (Equus caballus, UniProt P81908) (assay: Percent inhibition of eqBChE, Ellman's spectrophotometric method). Details: [I] 900 nM; 0.0833 U/mL enzyme, 100 μM acetylthiocholine; read-out: % inhibition vs eqBChE ± SD.
T1 construct: purchased Sigma-Aldrich (Milan, Italy)
T1 sequence (P81908 whole entry): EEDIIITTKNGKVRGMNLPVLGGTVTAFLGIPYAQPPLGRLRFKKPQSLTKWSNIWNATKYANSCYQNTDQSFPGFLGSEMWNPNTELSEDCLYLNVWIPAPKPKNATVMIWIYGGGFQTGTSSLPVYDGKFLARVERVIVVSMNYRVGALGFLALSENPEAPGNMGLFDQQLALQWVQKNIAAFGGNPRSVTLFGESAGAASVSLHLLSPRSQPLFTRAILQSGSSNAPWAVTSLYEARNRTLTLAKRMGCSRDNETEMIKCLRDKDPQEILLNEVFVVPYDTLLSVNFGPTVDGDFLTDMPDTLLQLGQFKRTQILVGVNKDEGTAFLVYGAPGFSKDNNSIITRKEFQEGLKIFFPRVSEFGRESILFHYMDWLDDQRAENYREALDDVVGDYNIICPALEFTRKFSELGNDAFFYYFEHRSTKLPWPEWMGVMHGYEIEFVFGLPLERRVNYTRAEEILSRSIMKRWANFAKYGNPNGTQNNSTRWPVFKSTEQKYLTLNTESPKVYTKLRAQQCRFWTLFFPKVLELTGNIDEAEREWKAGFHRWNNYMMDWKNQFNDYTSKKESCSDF
Type: biochemical
Experimental: On the synthesized compounds, enzymatic inhibition studies were carried out toward Electrophorus electricus AChE (EeAChE) and equine BChE (eqBChE) according to Ellman’s spectrophotometric method.[25]
(§1) All other chemical and biological reagents and solvents used were of the highest analytical, commercially available grade. The water, utilized for the preparation of the phosphate buffer and of the compound solutions, was distilled and filtered on nylon membrane filters with a 0.2 μm pore size with the Millipore Filtration apparatus before each use. Micropipettes Labmate (BRAND Dig. 10–100 μL; Dig. 100–1000 μL; Dig. 0.1–2 μL) and Transferpette (HIGH TECH LAB LM200: 20–200 μL; LM5000: 1000–5000 μL) were used to collect the samples. The assays were carried out by a double beam UV–vis Lambda 40 Perkin Elmer spectrophotometer using optical polystyrene cuvettes (10 × 10 × 45 mm, 340–800 nm optical transparency); each measure was repeated at least in triplicate. […] The spectrophotometric method of Ellman[25] with minor modifications was used to evaluate the inhibition of ChEs. […] EeAChE and eqBChE were periodically tested to evaluate the effective enzymatic activity.
(§2) For all the synthesized compounds, the percentages of inhibition toward AChE of Electrophorus electricus (EeAChE) and equine BChE (eqBChE) were evaluated.
(§3) Three milliliters of a solution in 0.1 M phosphate buffer (pH = 7.4) containing DTNB (0.25 mM) and EeAChE (0.083 UmL^–1) or eqBChE (0.083 UmL^–1) was placed in a polystyrene cuvette of 1.0 cm path length; 1 μL of a solution in DMSO of the tested compound was added to obtain a cuvette concentration range of 9–0.09 μM. With this solution, the blank was made. […] Each experiment was repeated at least in triplicate.

Row | Structure (SMILES) | inhibition at 0.9 µM
1 | Brc1ccc(CNCCCCCCNc2ccccn2)cc1 [Compound 26, N^1-(4-Bromobenzyl)-N^6-(pyridin-2-yl)hexane-1,6-diamine] | 17 ± 2.7%
2 | COc1ccccc1CNCCCCCCNc1ccccn1 [Compound 28, N^1-(2-Methoxybenzyl)-N^6-(pyridin-2-yl)hexane-1,6-diamine] | 24.2 ± 3.3%

Same assay, conditions: [I] 9 μM; 0.0833 U/mL enzyme, 100 μM acetylthiocholine; read-out: % inhibition vs eqBChE ± SD

Row | Structure (SMILES) | inhibition at 9 µM
3 | c1ccc(CNCCCCCNc2ncccn2)cc1 [Compound 9, N^1-Benzyl-N^5-(pyrimidin-2-yl)pentane-1,5-diamine] | 17.4 ± 2.7%
4 | c1ccc(CNCCCCCCNc2ncccn2)cc1 [Compound 13, N^1-Benzyl-N^6-(pyrimidin-2-yl)hexane-1,6-diamine] | 26 ± 3.5%
5 | Oc1cccc(CNCCCCCCNc2ncccn2)c1 [Compound 19, 3-(((6-(Pyrimidin-2-ylamino)hexyl)amino)methyl)phenol] | 26.6 ± 3.9%
6 | Oc1cccc(CNCCCCCCNc2ncccn2)c1O [Compound 20, 3-(((6-(Pyrimidin-2-ylamino)hexyl)amino)methyl)benzene-1,2-diol] | 17.1 ± 1.6%
7 | Brc1ccc(CNCCCCCCNc2ccccn2)cc1 [Compound 26, N^1-(4-Bromobenzyl)-N^6-(pyridin-2-yl)hexane-1,6-diamine] | 76.8 ± 0.5%
8 | COc1ccccc1CNCCCCCCNc1ccccn1 [Compound 28, N^1-(2-Methoxybenzyl)-N^6-(pyridin-2-yl)hexane-1,6-diamine] | 74.3 ± 1.4%

Same assay, conditions: read-out: % inhibition vs eqBChE ± SD (9 uM), 9 uM; supplement csv

Row | Structure (SMILES) | inhibition at 9 µM
9 | c1ccc(CNCCCCCNc2ncccn2)cc1 [Compound 9, N^1-Benzyl-N^5-(pyrimidin-2-yl)pentane-1,5-diamine] | 17.4 ± 2.7%
10 | c1ccc(CNCCCCCCNc2ncccn2)cc1 [Compound 13, N^1-Benzyl-N^6-(pyrimidin-2-yl)hexane-1,6-diamine] | 26 ± 3.5%
11 | Oc1cccc(CNCCCCCCNc2ncccn2)c1 [Compound 19, 3-(((6-(Pyrimidin-2-ylamino)hexyl)amino)methyl)phenol] | 26.6 ± 3.9%
12 | Oc1cccc(CNCCCCCCNc2ncccn2)c1O [Compound 20, 3-(((6-(Pyrimidin-2-ylamino)hexyl)amino)methyl)benzene-1,2-diol] | 17.1 ± 1.6%
13 | Brc1ccc(CNCCCCCCNc2ccccn2)cc1 [Compound 26, N^1-(4-Bromobenzyl)-N^6-(pyridin-2-yl)hexane-1,6-diamine] | 17 ± 2.7%
14 | COc1ccccc1CNCCCCCCNc1ccccn1 [Compound 28, N^1-(2-Methoxybenzyl)-N^6-(pyridin-2-yl)hexane-1,6-diamine] | 24.2 ± 3.3%

The compounds below were run against T2, Aβ42 peptide (Homo sapiens, UniProt P05067) (assay: Inhibition of Aβ42 aggregation in intact E. coli cells, thioflavin-S). Details: [I] = 100 μM.
T2 construct: expressed in transfected cells; host or cells: E. coli BL21 (DE3), pET28a
T2 sequence (P05067 672-713 limits assumed): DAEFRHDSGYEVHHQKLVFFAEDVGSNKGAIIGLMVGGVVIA
Type: cell-based, Escherichia coli
Experimental: The anti-aggregating effect of the tested compounds was monitored by a cell-based assay in intact Escherichia coli cells that overexpress either the Aβ42 peptide or tau protein, which upon overexpression form insoluble inclusion bodies that were stained with thioflavin-S, an amyloid specific dye.[36] The percentages of inhibition toward Aβ42 and tau aggregation were determined at an inhibitor concentration of 100 μM, and the obtained results are reported in Table 7.
E. coli competent cells BL21 (DE3) were transformed with the pET28a vector (Novagen, Inc., Madison, WI, USA) carrying the DNA sequence of Aβ42. Because of the addition of the initiation codon ATG in front of both genes, the overexpressed peptide contains an additional methionine residue at its N terminus. For overnight culture preparation, an amount of 10 mL of the M9 minimal medium containing 50 μg·mL^–1 of kanamycin was inoculated with a colony of BL21 (DE3) bearing the plasmid to be expressed at 37 °C. For expression of the Aβ42 peptide, the required volume of overnight culture to obtain 1:500 dilution was added into the fresh M9 minimal medium containing 50 μg·mL^–1 of kanamycin and 250 μM Th-S. The bacterial culture was grown at 37 °C and 250 rpm. When the cell density reached OD600 = 0.6, an amount of 980 μL of culture was transferred into Eppendorf tubes of 1.5 mL with 10 μL of each compound to be tested in DMSO and 10 μL of isopropyl 1-thio-β-D-galactopyranoside (IPTG) at 100 mM. The final concentration of the drug was fixed at 100 μM. The samples were grown overnight at 37 °C and 1400 rpm using a ThermoMixer (Eppendorf, Hamburg, Germany). As negative control (maximal amyloid presence), the same amount of DMSO without the drug was added in the sample. In parallel, non-induced samples (in the absence of IPTG) were also prepared and used as positive controls (non-amyloid presence). In addition, these samples were used to assess the potential intrinsic toxicity of the compounds and to confirm the correct bacterial growth.
Th-S (T1892) and other chemical reagents were purchased from Sigma (St. Louis, MO). The Th-S stock solution ([…]) was prepared in double-distilled water purified through a Milli-Q system (Millipore, USA). Th-S fluorescence and absorbance were tracked using a DTX 800 plate reader Multimode Detector equipped with a Multimode Analysis Software (Beckman-Coulter, USA). Filters of 430/35 and 485/20 nm were used for the excitation and emission wavelengths, respectively. Filters of 535/25 nm were also used for the absorbance determination. To normalize the Th-S fluorescence as a function of the bacterial concentration, OD600 was obtained using a Shimadzu UV-2401 PC UV–vis spectrophotometer (Shimadzu, Japan). Note that the fluorescence normalization was carried out considering as 100% the Th-S fluorescence of the bacterial cells expressing the peptide or protein in the absence of drug and 0% the Th-S fluorescence of the bacterial cells not expressing the peptide or protein. A minimum of five independent assays (with three replicates for assay) was performed for each tested compound. More assays were performed to obtain a SEM < 5% with a maximum of 10 independent assays.

Row | Structure (SMILES) | inhibition at 100 µM
15 | c1ccc(CNCCCCCNc2ncccn2)cc1 [Compound 9, N^1-Benzyl-N^5-(pyrimidin-2-yl)pentane-1,5-diamine] | 5.8%
16 | c1ccc(CNCCCCCCNc2ncccn2)cc1 [Compound 13, N^1-Benzyl-N^6-(pyrimidin-2-yl)hexane-1,6-diamine] | 21%
17 | Oc1cccc(CNCCCCCCNc2ncccn2)c1 [Compound 19, 3-(((6-(Pyrimidin-2-ylamino)hexyl)amino)methyl)phenol] | 16.7%
18 | Oc1cccc(CNCCCCCCNc2ncccn2)c1O [Compound 20, 3-(((6-(Pyrimidin-2-ylamino)hexyl)amino)methyl)benzene-1,2-diol] | 7.2%
19 | Brc1ccc(CNCCCCCCNc2ccccn2)cc1 [Compound 26, N^1-(4-Bromobenzyl)-N^6-(pyridin-2-yl)hexane-1,6-diamine] | 7.3%
20 | COc1ccccc1CNCCCCCCNc1ccccn1 [Compound 28, N^1-(2-Methoxybenzyl)-N^6-(pyridin-2-yl)hexane-1,6-diamine] | 22.3%

These compounds were tested against T3, Electrophorus electricus AChE (EeAChE) (Electrophorus electricus, UniProt O42275) (assay: Percent inhibition of EeAChE, Ellman's spectrophotometric method). Details: read-out: % inhibition vs EeAChE ± SD (9 uM), 9 uM; supplement csv.
T3 construct: purchased Sigma-Aldrich (Milan, Italy)
T3 sequence (O42275 24-633): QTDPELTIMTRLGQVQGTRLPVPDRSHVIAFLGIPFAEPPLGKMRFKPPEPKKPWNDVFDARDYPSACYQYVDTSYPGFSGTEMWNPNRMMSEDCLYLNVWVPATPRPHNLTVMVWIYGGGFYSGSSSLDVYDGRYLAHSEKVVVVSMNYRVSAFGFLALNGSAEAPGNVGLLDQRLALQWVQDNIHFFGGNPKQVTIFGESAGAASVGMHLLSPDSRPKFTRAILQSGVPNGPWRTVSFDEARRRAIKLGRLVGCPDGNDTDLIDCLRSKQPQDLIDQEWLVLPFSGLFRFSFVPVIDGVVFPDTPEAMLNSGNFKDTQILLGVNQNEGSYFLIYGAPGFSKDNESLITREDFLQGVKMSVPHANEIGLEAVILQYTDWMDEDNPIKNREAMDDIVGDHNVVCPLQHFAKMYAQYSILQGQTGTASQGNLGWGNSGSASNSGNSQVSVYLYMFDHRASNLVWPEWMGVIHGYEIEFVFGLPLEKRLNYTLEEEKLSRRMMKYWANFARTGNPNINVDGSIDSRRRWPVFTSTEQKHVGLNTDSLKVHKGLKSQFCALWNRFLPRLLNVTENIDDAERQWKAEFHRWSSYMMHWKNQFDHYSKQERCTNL
Type: biochemical
Experimental: as §1, §2
as §3, with “solution in DMSO of the tested compound was added to obtain a cuvette concentration range of 9–0.09 μM.” left out

Row | Structure (SMILES) | inhibition at 9 µM
21 | c1ccc(CNCCCCCNc2ncccn2)cc1 [Compound 9, N^1-Benzyl-N^5-(pyrimidin-2-yl)pentane-1,5-diamine] | 90.2 ± 0.7%
22 | c1ccc(CNCCCCCCNc2ncccn2)cc1 [Compound 13, N^1-Benzyl-N^6-(pyrimidin-2-yl)hexane-1,6-diamine] | 92.9 ± 0.4%
23 | Oc1cccc(CNCCCCCCNc2ncccn2)c1 [Compound 19, 3-(((6-(Pyrimidin-2-ylamino)hexyl)amino)methyl)phenol] | 84.4 ± 0.3%
24 | Oc1cccc(CNCCCCCCNc2ncccn2)c1O [Compound 20, 3-(((6-(Pyrimidin-2-ylamino)hexyl)amino)methyl)benzene-1,2-diol] | 90.5 ± 0.5%
25 | Brc1ccc(CNCCCCCCNc2ccccn2)cc1 [Compound 26, N^1-(4-Bromobenzyl)-N^6-(pyridin-2-yl)hexane-1,6-diamine] | 23.5 ± 2.2%
26 | COc1ccccc1CNCCCCCCNc1ccccn1 [Compound 28, N^1-(2-Methoxybenzyl)-N^6-(pyridin-2-yl)hexane-1,6-diamine] | 58.6 ± 1.1%

Same assay, conditions: read-out: % inhibition vs EeAChE ± SD (90 uM), 90 uM; supplement csv

Row | Structure (SMILES) | inhibition at 90 µM
27 | c1ccc(CNCCCCCNc2ncccn2)cc1 [Compound 9, N^1-Benzyl-N^5-(pyrimidin-2-yl)pentane-1,5-diamine] | 14.1 ± 1.4%
28 | c1ccc(CNCCCCCCNc2ncccn2)cc1 [Compound 13, N^1-Benzyl-N^6-(pyrimidin-2-yl)hexane-1,6-diamine] | 19.2 ± 1.4%
29 | Oc1cccc(CNCCCCCCNc2ncccn2)c1O [Compound 20, 3-(((6-(Pyrimidin-2-ylamino)hexyl)amino)methyl)benzene-1,2-diol] | 12.8 ± 1.9%
30 | Brc1ccc(CNCCCCCCNc2ccccn2)cc1 [Compound 26, N^1-(4-Bromobenzyl)-N^6-(pyridin-2-yl)hexane-1,6-diamine] | 76.8 ± 0.5%
31 | COc1ccccc1CNCCCCCCNc1ccccn1 [Compound 28, N^1-(2-Methoxybenzyl)-N^6-(pyridin-2-yl)hexane-1,6-diamine] | 74.3 ± 1.4%

Same assay, conditions: read-out: % inhibition vs EeAChE ± SD (900 uM), 900 uM; supplement csv

Row | Structure (SMILES) | inhibition at 900 µM
32 | c1ccc(CNCCCCCNc2ncccn2)cc1 [Compound 9, N^1-Benzyl-N^5-(pyrimidin-2-yl)pentane-1,5-diamine] | 57.1 ± 0.9%
33 | c1ccc(CNCCCCCCNc2ncccn2)cc1 [Compound 13, N^1-Benzyl-N^6-(pyrimidin-2-yl)hexane-1,6-diamine] | 60.3 ± 1.5%
34 | Oc1cccc(CNCCCCCCNc2ncccn2)c1 [Compound 19, 3-(((6-(Pyrimidin-2-ylamino)hexyl)amino)methyl)phenol] | 39 ± 1.9%
35 | Oc1cccc(CNCCCCCCNc2ncccn2)c1O [Compound 20, 3-(((6-(Pyrimidin-2-ylamino)hexyl)amino)methyl)benzene-1,2-diol] | 53.6 ± 3.1%
36 | COc1ccccc1CNCCCCCCNc1ccccn1 [Compound 28, N^1-(2-Methoxybenzyl)-N^6-(pyridin-2-yl)hexane-1,6-diamine] | 9 ± 1.6%

Same assay, conditions: read-out: % inhibition vs EeAChE ± SD, [I] 90 nM; 0.0833 U/mL enzyme, 100 μM acetylthiocholine

Row | Structure (SMILES) | inhibition at 0.09 µM
37 | c1ccc(CNCCCCCNc2ncccn2)cc1 [Compound 9, N^1-Benzyl-N^5-(pyrimidin-2-yl)pentane-1,5-diamine] | 14.1 ± 1.4%
38 | c1ccc(CNCCCCCCNc2ncccn2)cc1 [Compound 13, N^1-Benzyl-N^6-(pyrimidin-2-yl)hexane-1,6-diamine] | 19.2 ± 1.4%
39 | Oc1cccc(CNCCCCCCNc2ncccn2)c1O [Compound 20, 3-(((6-(Pyrimidin-2-ylamino)hexyl)amino)methyl)benzene-1,2-diol] | 12.8 ± 1.9%

Same assay, conditions: read-out: % inhibition vs EeAChE ± SD, [I] 900 nM; 0.0833 U/mL enzyme, 100 μM acetylthiocholine

Row | Structure (SMILES) | inhibition at 0.9 µM
40 | c1ccc(CNCCCCCNc2ncccn2)cc1 [Compound 9, N^1-Benzyl-N^5-(pyrimidin-2-yl)pentane-1,5-diamine] | 40 to 60%
41 | Oc1cccc(CNCCCCCCNc2ncccn2)c1 [Compound 19, 3-(((6-(Pyrimidin-2-ylamino)hexyl)amino)methyl)phenol] | 40 to 60%
42 | Oc1cccc(CNCCCCCCNc2ncccn2)c1O [Compound 20, 3-(((6-(Pyrimidin-2-ylamino)hexyl)amino)methyl)benzene-1,2-diol] | 40 to 60%
43 | COc1ccccc1CNCCCCCCNc1ccccn1 [Compound 28, N^1-(2-Methoxybenzyl)-N^6-(pyridin-2-yl)hexane-1,6-diamine] | 9 ± 1.6%

Same assay, conditions: read-out: % inhibition vs EeAChE ± SD, [I] 9 μM; 0.0833 U/mL enzyme, 100 μM acetylthiocholine

Row | Structure (SMILES) | inhibition at 9 µM
44 | c1ccc(CNCCCCCNc2ncccn2)cc1 [Compound 9, N^1-Benzyl-N^5-(pyrimidin-2-yl)pentane-1,5-diamine] | ~90%
45 | c1ccc(CNCCCCCCNc2ncccn2)cc1 [Compound 13, N^1-Benzyl-N^6-(pyrimidin-2-yl)hexane-1,6-diamine] | ~90%
46 | Oc1cccc(CNCCCCCCNc2ncccn2)c1 [Compound 19, 3-(((6-(Pyrimidin-2-ylamino)hexyl)amino)methyl)phenol] | ~90%
47 | Oc1cccc(CNCCCCCCNc2ncccn2)c1O [Compound 20, 3-(((6-(Pyrimidin-2-ylamino)hexyl)amino)methyl)benzene-1,2-diol] | ~90%
48 | Brc1ccc(CNCCCCCCNc2ccccn2)cc1 [Compound 26, N^1-(4-Bromobenzyl)-N^6-(pyridin-2-yl)hexane-1,6-diamine] | 24 to 30%
49 | COc1ccccc1CNCCCCCCNc1ccccn1 [Compound 28, N^1-(2-Methoxybenzyl)-N^6-(pyridin-2-yl)hexane-1,6-diamine] | ~60%
